Results: patent US20230416330A1, “Optimized GIP Peptide Analogues” (Antag Therapeutics ApS, priority 2019, published 2023)
Residues, ends and D or L forms follow the SMILES beside them. *: point of attachment. C20 diacid = O=C(O)CCCCCCCCCCCCCCCCCCC(=O)*; C16 diacid = O=C(O)CCCCCCCCCCCCCCC(=O)*; Palmitoyl = CCCCCCCCCCCCCCCC(=O)*

Columns and labels:
[1] = Solubility by visual inspection of peptide solutions; type: physicochemical; conditions: 1 mg/ml, TFA, Phosphate (7.4)
Experimental: (§1) Peptides were either dissolved in sodium phosphate buffer (50 mM, pH 7.4, filtered) or dissolved in ultrapure (MilliQ) water (adjusted to pH 7.4 with NaOH, filtered) (see Table 3). All peptide samples were prepared to a concentration of 1, 5, 7.5 or 15 mg/ml. All samples, with the exception of reference peptides GIP(3-30), AT158, and AT482 dissolved readily and produced clear and colorless solutions with gentle mixing. Peptide samples were subsequently filtered through 0.22 μm nylon filters (Q-Max® RR syringe filter, 13 mm, Frisenette, DK) to produce particle-free solutions. All samples were added to a 96-well plate reader for the ThT assay at t=0.
Clear visual appearance may be taken as an indicator of the immediate solubility of the peptide. […] Thus, A13Aib and/or N24E substitutions appear to increase solubility.

[2] = Physical stability: fibril formation in Thioflavin T (ThT) assay with agitation; type: physicochemical; conditions: 1 mg/ml, TFA, Phosphate (7.4); 25° C., agitation
Experimental: Continuous measurement of the fluorescence emission at 486 nm can be used as a measure of fibrillation behavior of peptides and proteins. The time until onset of fibrillation or fibrillation lag time is estimated here by defining the lag time (Tlag) as the point in time where the signal relative to the pre-transition baseline has reached 10% of the post-transition baseline.
50 mM sodium phosphate buffer for dissolving some samples was prepared in ultrapure water (Milli-Q® Reference A+ System, Merck) with a resistivity of 18.2 MΩ·cm. The buffer was adjusted to pH 7.4 and filtered.
The ultrapure water (MilliQ) for dissolving some samples was adjusted to pH 7.4 with NaOH and filtered prior to sample preparation.
as §1
For each sample, […] ThT (1 mM) was added to 1.2 mL peptide solution. From this sample mixture, an amount of 200 uL/well was pipetted into four or five wells (n=4 or 5). Blank samples (buffer+ThT) were also included. One 3 mm silica bead was added to each well containing samples and the plate was subjected to orbital rotation at 300 rpm to agitate and stress the samples. The temperature was kept at 25° C. throughout the measurement.

With `CC[C@H](C)[C@H](NC(=O)[C@H](CO)NC(=O)[C@H](Cc1ccc(O)cc1)NC(=O)[C@H](CC(=O)O)NC(=O)[C@H](CO)NC(=O)[C@@H](NC(=O)[C@H](Cc1ccccc1)NC(=O)[C@@H](NC(=O)CNC(=O)[C@@H](N)CCC(=O)O)[C@@H](C)O)[C@@H](C)CC)C(=O)N[C@@H](C)C(=O)N[C@@H](CCSC)C(=O)N[C@@H](CC(=O)O)C(=O)N[C@@H](CCCCN)C(=O)N[C@H](C(=O)N[C@@H](Cc1c[nH]cn1)C(=O)N[C@@H](CCC(N)=O)C(=O)N[C@@H](CCC(N)=O)C(=O)N[C@@H](CC(=O)O)C(=O)N[C@@H](Cc1ccccc1)C(=O)N[C@H](C(=O)N[C@@H](CCC(=O)O)C(=O)N[C@@H](Cc1c[nH]c2ccccc12)C(=O)N[C@@H](CC(C)C)C(=O)N[C@@H](CC(C)C)C(=O)N[C@@H](C)C(=O)N[C@@H](CCC(N)=O)C(=O)N[C@@H](CCCCN)C(=O)N1CCC[C@H]1C(=O)N[C@@H](CO)C(=O)N[C@@H](CO)C(=O)NCC(=O)N[C@@H](C)C(=O)N1CCC[C@H]1C(=O)N1CCC[C@H]1C(=O)N1CCC[C@H]1C(=O)N[C@@H](CO)C(=O)N[C@@H](CCCCNC(=O)CCCCCCCCCCCCCCC(=O)O)C(=O)O)C(C)C)[C@@H](C)CC` [AT744] (H-EGTFISDYSIAMDKIHQQDFVEWLLAQKPSSGAPPPSK(C16 diacid)-OH; N-terminus assumed) the Visual appearance [1] was “Clear” and the “Avr lag time (h)” value [2] was “fnd (Fnd = fibrils not detected within experiment time (96 hours) with agitation.)”.

For `CC[C@H](C)[C@H](NC(=O)[C@H](CO)NC(=O)[C@H](Cc1ccc(O)cc1)NC(=O)[C@H](CC(=O)O)NC(=O)[C@H](CO)NC(=O)[C@@H](NC(=O)[C@H](Cc1ccccc1)NC(=O)[C@@H](NC(=O)CNC(=O)[C@@H](N)CCC(=O)O)[C@@H](C)O)[C@@H](C)CC)C(=O)N[C@@H](C)C(=O)N[C@@H](CCSC)C(=O)N[C@@H](CC(=O)O)C(=O)N[C@@H](CCCCN)C(=O)N[C@H](C(=O)N[C@@H](CCCCNC(=O)CCCCCCCCCCCCCCC(=O)O)C(=O)N[C@@H](CCC(N)=O)C(=O)N[C@@H](CCC(N)=O)C(=O)N[C@@H](C)C(=O)N[C@@H](Cc1ccccc1)C(=O)N[C@H](C(=O)N[C@@H](CCC(=O)O)C(=O)N[C@@H](Cc1c[nH]c2ccccc12)C(=O)N[C@@H](CC(C)C)C(=O)N[C@@H](CC(C)C)C(=O)N[C@@H](C)C(=O)N[C@@H](CCC(N)=O)C(=O)N[C@@H](CCCCN)C(=O)N1CCC[C@H]1C(=O)N[C@@H](CO)C(=O)N[C@@H](CO)C(=O)NCC(=O)N[C@@H](C)C(=O)N1CCC[C@H]1C(=O)N1CCC[C@H]1C(=O)N1CCC[C@H]1C(=O)N[C@@H](CO)C(=O)O)C(C)C)[C@@H](C)CC` [AT745] (H-EGTFISDYSIAMDKIK(C16 diacid)QQAFVEWLLAQKPSSGAPPPS-OH; N-terminus assumed), the Visual appearance [1] was “Clear” and the “Avr lag time” value [2] was less than 24 h.

For `CC[C@H](C)[C@H](NC(=O)[C@H](C)NC(=O)[C@H](Cc1ccc(O)cc1)NC(=O)[C@H](CC(=O)O)NC(=O)[C@H](CO)NC(=O)[C@@H](NC(=O)[C@H](Cc1ccccc1)NC(=O)[C@@H](NC(=O)CNC(=O)[C@@H](N)CCC(=O)O)[C@@H](C)O)[C@@H](C)CC)C(=O)N[C@@H](C)C(=O)N[C@@H](CCSC)C(=O)N[C@@H](CC(=O)O)C(=O)N[C@@H](CCCCN)C(=O)N[C@H](C(=O)N[C@@H](CCCCNC(=O)CCCCCCCCCCCCCCC(=O)O)C(=O)N[C@@H](CCC(N)=O)C(=O)N[C@@H](CCC(N)=O)C(=O)N[C@@H](CC(=O)O)C(=O)N[C@@H](Cc1ccccc1)C(=O)N[C@H](C(=O)N[C@@H](CCC(=O)O)C(=O)N[C@@H](Cc1c[nH]c2ccccc12)C(=O)N[C@@H](CC(C)C)C(=O)N[C@@H](CC(C)C)C(=O)N[C@@H](C)C(=O)N[C@@H](CCC(N)=O)C(=O)N[C@@H](CCCCN)C(=O)N1CCC[C@H]1C(=O)N[C@@H](CO)C(=O)N[C@@H](CO)C(=O)NCC(=O)N[C@@H](C)C(=O)N1CCC[C@H]1C(=O)N1CCC[C@H]1C(=O)N1CCC[C@H]1C(=O)N[C@@H](CO)C(=O)O)C(C)C)[C@@H](C)CC` [AT746] (H-EGTFISDYAIAMDKIK(C16 diacid)QQDFVEWLLAQKPSSGAPPPS-OH; N-terminus assumed), the Visual appearance [1] was “Clear” and the “Avr lag time (h)” value [2] was “fnd (Fnd = fibrils not detected within experiment time (96 hours) with agitation.)”.

In the case of `CC[C@H](C)[C@H](NC(=O)[C@H](C)NC(=O)[C@H](CC(=O)O)NC(=O)[C@H](CCSC)NC(=O)[C@H](C)NC(=O)[C@@H](NC(=O)[C@H](CO)NC(=O)[C@H](Cc1ccc(O)cc1)NC(=O)[C@H](CC(=O)O)NC(=O)[C@H](CO)NC(=O)[C@@H](NC(=O)[C@H](Cc1ccccc1)NC(=O)[C@@H](NC(=O)CNC(=O)[C@@H](N)CCC(=O)O)[C@@H](C)O)[C@@H](C)CC)[C@@H](C)CC)C(=O)N[C@@H](CCCCNC(=O)CCCCCCCCCCCCCCC(=O)O)C(=O)N[C@@H](CCC(N)=O)C(=O)N[C@@H](CCC(N)=O)C(=O)N[C@@H](CC(=O)O)C(=O)N[C@@H](Cc1ccccc1)C(=O)N[C@H](C(=O)N[C@@H](CCC(=O)O)C(=O)N[C@@H](Cc1c[nH]c2ccccc12)C(=O)N[C@@H](CC(C)C)C(=O)N[C@@H](CC(C)C)C(=O)N[C@@H](C)C(=O)N[C@@H](CCC(N)=O)C(=O)N[C@@H](CCCCN)C(=O)N1CCC[C@H]1C(=O)N[C@@H](CO)C(=O)N[C@@H](CO)C(=O)NCC(=O)N[C@@H](C)C(=O)N1CCC[C@H]1C(=O)N1CCC[C@H]1C(=O)N1CCC[C@H]1C(=O)N[C@@H](CO)C(=O)O)C(C)C` [AT748] (H-EGTFISDYSIAMDAIK(C16 diacid)QQDFVEWLLAQKPSSGAPPPS-OH; N-terminus assumed), the Visual appearance [1] is reported as “Clear” and the “Avr lag time” value [2] is reported as less than 24 h.

For `CC[C@H](C)[C@H](NC(=O)[C@H](CO)NC(=O)[C@H](Cc1ccc(O)cc1)NC(=O)[C@H](CC(=O)O)NC(=O)[C@H](CO)NC(=O)[C@@H](NC(=O)[C@H](Cc1ccccc1)NC(=O)[C@@H](NC(=O)CNC(=O)[C@@H](N)CCC(=O)O)[C@@H](C)O)[C@@H](C)CC)C(=O)N[C@@H](C)C(=O)N[C@@H](CCSC)C(=O)N[C@@H](CC(=O)O)C(=O)N[C@@H](CCCCN)C(=O)N[C@H](C(=O)N[C@@H](CCCCNC(=O)CCCCCCCCCCCCCCCCCCC(=O)O)C(=O)N[C@@H](CCC(N)=O)C(=O)N[C@@H](CCC(N)=O)C(=O)N[C@@H](CC(=O)O)C(=O)N[C@@H](Cc1ccccc1)C(=O)N[C@H](C(=O)N[C@@H](CCC(=O)O)C(=O)N[C@@H](Cc1c[nH]c2ccccc12)C(=O)N[C@@H](CC(C)C)C(=O)N[C@@H](CC(C)C)C(=O)N[C@@H](C)C(=O)N[C@@H](CCC(N)=O)C(=O)N[C@@H](CCCCN)C(=O)N1CCC[C@H]1C(=O)N[C@@H](CO)C(=O)N[C@@H](CO)C(=O)NCC(=O)N[C@@H](C)C(=O)N1CCC[C@H]1C(=O)N1CCC[C@H]1C(=O)N1CCC[C@H]1C(=O)N[C@@H](CO)C(=O)O)C(C)C)[C@@H](C)CC` [AT750] (H-EGTFISDYSIAMDKIK(C20 diacid)QQDFVEWLLAQKPSSGAPPPS-OH; N-terminus assumed), the Visual appearance [1] was “Clear” and the “Avr lag time (h)” value [2] was “fnd (Fnd = fibrils not detected within experiment time (96 hours) with agitation.)”.

For `CCCCCCCCCCCCCCCC(=O)NCCCC[C@H](NC(=O)[C@@H](NC(=O)[C@H](CCCCN)NC(=O)[C@H](CC(=O)O)NC(=O)[C@H](CCSC)NC(=O)[C@H](C)NC(=O)[C@@H](NC(=O)[C@H](CO)NC(=O)[C@H](Cc1ccc(O)cc1)NC(=O)[C@H](CC(=O)O)NC(=O)[C@H](CO)NC(=O)[C@@H](NC(=O)[C@H](Cc1ccccc1)NC(=O)[C@@H](NC(=O)CNC(=O)[C@@H](N)CCC(=O)O)[C@@H](C)O)[C@@H](C)CC)[C@@H](C)CC)[C@@H](C)CC)C(=O)N[C@@H](CCC(N)=O)C(=O)N[C@@H](CCC(N)=O)C(=O)N[C@@H](CC(=O)O)C(=O)N[C@@H](Cc1ccccc1)C(=O)N[C@H](C(=O)N[C@@H](CCC(=O)O)C(=O)N[C@@H](Cc1c[nH]c2ccccc12)C(=O)N[C@@H](CC(C)C)C(=O)N[C@@H](CC(C)C)C(=O)N[C@@H](C)C(=O)N[C@@H](CCC(N)=O)C(=O)N[C@@H](CCCCN)C(=O)N1CCC[C@H]1C(=O)N[C@@H](CO)C(=O)N[C@@H](CO)C(=O)NCC(=O)N[C@@H](C)C(=O)N1CCC[C@H]1C(=O)N1CCC[C@H]1C(=O)N1CCC[C@H]1C(=O)N[C@@H](CO)C(=O)O)C(C)C` [AT751] (H-EGTFISDYSIAMDKIK(Palmitoyl)QQDFVEWLLAQKPSSGAPPPS-OH; N-terminus assumed), the Visual appearance [1] was “Clear” and the “Avr lag time” value [2] was less than 24 h.
